Test results from patent US20250171404A1, “PCNA INHIBITORS AND USES THEREOF” (CITY OF HOPE, priority 2022, published 2025).
Read-outs that look alike come from different tables or passages of the source. One block for each compound: values may come before it.

Columns and labels:
[1] = system: A375; assay: Cell growth IC50, screening of AOH1160 analogs; format: cell-based; settings: Homo sapiens, A-375
Experimental: (§1) FIG. 29. IC50 data for select compounds. The indicated cell lines were seeded at 10^4 cells per well in a 96 well plate. After allowing to attach to the plate overnight, cells were treated with various concentrations of the indicated compounds in triplicates for 72 hrs. The cell growth was measured by an SRB assay. The cell abundances under each treatment condition relative to the baseline were averaged and graphed ±S.D. The baseline is defined as the median value of the cell abundances under the treatment by the two lowest compound concentrations. The IC50 was calculated by the Prism program.

[2] = system: Hela; assay: Cell growth IC50, screening of AOH1160 analogs; format: cell-based; settings: Homo sapiens
Experimental: as §1

[3] = system: HCT-116; assay: Cell growth IC50, screening of AOH1160 analogs; format: cell-based; settings: Homo sapiens, HCT-116; read-out: IC50 values
Experimental: as §1

[4] = system: OVCAR8; assay: Cell growth IC50, screening of AOH1160 analogs; format: cell-based; settings: Homo sapiens, OVCAR-8; OVCAR8; read-out: IC50 values
Experimental: as §1

[5] = system: RKO; assay: Cell growth IC50, screening of AOH1160 analogs; format: cell-based; settings: Homo sapiens, read-out: IC50 values
Experimental: as §1

[6] = system: SK-N-AS derived xenograft tumors; assay: Survival of mice bearing xenograft tumors, AOH1996 with CPT-11; format: in vivo, ES1^e/SCID mice; settings: AOH1996 80 mg/kg oral 8 d; CPT-11 15 mg/kg i.p. 3 d; vs untreated
Experimental: FIGS. 4A-4H. Pharmacokinetics and anti-tumor growth activity of AOH1996 in vivo. FIG. 4A: After oral administration, the plasma concentrations of AOH1996 from three male and three female ES1^e/SCID mice at the indicated time points were averaged and graphed ±S.D. The inset contains PK parameters determined by a standard noncompartmental method. FIG. 4B: A similar PK study of AOH1996 was performed in dogs. FIGS. 4C-4E: Mice bearing the xenograft tumors of neuroblastoma (FIG. 4C: SK-N-BE(2)c), breast cancer (FIG. 4D: MDA-MB-468), and small-cell lung cancer (FIG. 4E: H82) were given vehicle only (black) or 40 mg/kg of AOH1996 (grey) twice daily immediately after the first measurement. Tumor sizes were measured by a dial caliper each week. Tumor volumes (0.4×L×W^2) were averaged and graphed ±S.E. (*, P<0.01). FIG. 4F: Animal body weight was monitored throughout the studies as an indicator of toxicity. […] FIG. 4G: The levels of phosphor-Chk1 (pChk1) and γH2A.X in SK-N-BE(2)c derived tumor samples were analyzed by IHC. […] The p values determined by the Log-rank (Mantel-Cox) test between combination treatment and each of the control groups are p=0.0003 (Combination vs. NoRx), p=0.005 (Combination vs. AOH1996 alone), and p=0.024 (Combination vs. CPT-11 alone). […]
In vivo tumor model. […] Tumor size and animal weight were measured weekly. […]

[7] = system: SK-N-AS; assay: Cell growth IC50, screening of AOH1160 analogs; format: cell-based; settings: Homo sapiens
Experimental: as §1

[8] = biological target: caPCNA (Homo sapiens, UniProt P12004); assay: Molecular probe binding in vitro
Chain of caPCNA (P12004 whole entry): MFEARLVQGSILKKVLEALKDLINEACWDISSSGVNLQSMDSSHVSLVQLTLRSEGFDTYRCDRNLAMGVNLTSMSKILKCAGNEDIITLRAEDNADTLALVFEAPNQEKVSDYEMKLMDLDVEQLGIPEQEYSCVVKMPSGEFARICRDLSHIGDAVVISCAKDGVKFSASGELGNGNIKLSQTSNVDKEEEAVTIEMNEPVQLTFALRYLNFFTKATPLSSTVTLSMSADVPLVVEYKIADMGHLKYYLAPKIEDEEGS

[9] = system: A549; assay: Cell growth IC50, screening of AOH1160 analogs; format: cell-based; settings: Homo sapiens
Experimental: as §1

[10] = system: A673; assay: Cell growth IC50, screening of AOH1160 analogs; format: cell-based; settings: Homo sapiens
Experimental: as §1

[11] = system: H1753; assay: Cell growth IC50, screening of AOH1160 analogs; format: cell-based
Experimental: as §1

[12] = system: H358; assay: Cell growth IC50, screening of AOH1160 analogs; format: cell-based; settings: Homo sapiens, NCI-H358
Experimental: as §1

[13] = system: MDA-MB-468; assay: Cell growth IC50, screening of AOH1160 analogs; format: cell-based; settings: Homo sapiens, MDA-MB-468; read-out: IC50 values
Experimental: as §1

[14] = system: SK-N-BE(2)c; assay: Cell growth IC50, screening of AOH1160 analogs; format: cell-based; settings: Homo sapiens
Experimental: as §1

[15] = system: SK-N-DZ; assay: Cell growth IC50, screening of AOH1160 analogs; format: cell-based; settings: Homo sapiens
Experimental: as §1

Structure (SMILES): COc1cccc(Sc2ccccc2NC(=O)CNC(=O)c2cccc3ccccc23)c1 [AOH1996S, N-(2-((2-((3-methoxyphenyl)thio)phenyl)amino)-2-oxoethyl)-1-naphthamide]
IC50 [1]: 170 nM | IC50 ([2]; HeLa, read-out: IC50 values): 0.37 µM

Structure (SMILES): CCc1c2c(nc3ccc(OC(=O)N4CCC(N5CCCCC5)CC4)cc13)-c1cc3c(c(=O)n1C2)COC(=O)[C@]3(O)CC [CPT-11, reference compound]
increase of median survival [6]: 34.6%

Structure (SMILES): N[C@@H](CCC(=O)O)C(=O)O [Glutamic acid]
binding to caPCNA as molecular probe [8]: bound caPCNA tightly

Structure (SMILES): COc1cccc(Oc2ccccc2NC(=O)[C@H](C)NC(=O)c2cccc3ccccc23)c1 [AOH1996LA, (S)—N-(1-((2-(3-methoxyphenoxy)phenyl)amino)-1-oxopropan-2-yl)-1-naphthamide]
IC50 ([11]; FIG. 26, H1752, read-out: IC50): 1600 nM | IC50 ([11]; H1753, read-out: IC50 values): 1600 nM | IC50 ([12]; FIG. 26, H358, read-out: IC50): 1800 nM | IC50 ([12]; read-out: IC50 values): 1800 nM | IC50 [13]: 2300 nM | IC50 ([7]; FIG. 26, AK-N-AS, read-out: IC50): 1500 nM | IC50 ([7]; read-out: IC50 values): 1500 nM

Structure (SMILES): O=C(CNC(=O)c1cccc2ccccc12)Nc1c(Cl)cccc1Oc1ccccc1 [AOH1160-2-C1]
IC50 ([7]; read-out: IC50 values): > 10000 nM | IC50 [14]: > 10 µM | IC50 [15]: > 10 µM

Second part, led by results:

IC50 [3]: 2210 nM | IC50 [4]: 1600 nM
Structure (SMILES): O=C(CNC(=O)c1cccc2ccccc12)Nc1ccccc1Sc1cccc(F)c1 [AOH1996S-3F, N-(2-((2-((3-fluorophenyl)thio)phenyl)amino)-2-oxoethyl)-1-naphthamide]
IC50 [5]: 2320 nM

IC50 [1]: 350 nM | IC50 ([7]; read-out: IC50 values): 370 nM
Structure (SMILES): O=C(CNC(=O)c1cccc2ccccc12)Nc1ccccc1Sc1ccc(F)cc1 [AOH1996S-4F, N-(2-((2-((4-fluorophenyl)thio)phenyl)amino)-2-oxoethyl)-1-naphthamide]

IC50 ([9]; FIG. 27, read-out: IC50): 4.7 µM | IC50 ([9]; read-out: IC50 values): 4.7 µM | IC50 ([2]; HeLa, read-out: IC50 values): 6.5 µM | IC50 ([2]; FIG. 27, Hela, read-out: IC50): 6.5 µM
Structure (SMILES): COc1cccc(Oc2ccccc2NC(=O)CNC(=O)c2c(C)cc(C)cc2C)c1 [AOH1996TMB, N-(2-((2-(3-methoxyphenoxy)phenyl)amino)-2-oxoethyl)-2,4,6-trimethylbenzamide]
IC50 ([10]; FIG. 27, read-out: IC50): 5.5 µM | IC50 ([10]; read-out: IC50 values): 5.5 µM

binding to caPCNA as molecular probe [8]: bound caPCNA tightly
Structure (SMILES): NCCCC[C@H](N)C(=O)O [Lysine]
